Experimental findings from patent US4504464A, “2,3-Dialkoxypropyl glyceryl ether and its preparation process as well as cosmetic composition containing same” (Kao Soap Co., Ltd., priority 1981, dated 1985) are described below.

One data set in a line: Viscosity (27° C.). It is filed as physicochemical. As to the method: (§1) Physical and chemical properties of the compound prepared in Example 1, which compound relates to the present invention, and an example of its application for cosmetic compositions will be described below.
(§2) Viscosity Water-solubility (25° )

Data set [1] is described as follows: Water-solubility (25° C.). It is filed as physicochemical. The conditions noted are these: for Water-solubility (25° C.) 10%: 10% content of the diglycerin dialkyl ether; for Water-solubility (25° C.) 50%: 50% content of the diglycerin dialkyl ether. As to the method: as §1, §2
* Content (%) of the diglycerin dialkyl ether according to this invention
These figures will have the same significance in subsequent examples.

Consider `CCCCCCCCOCC(COCC(O)CO)OC` (stereo not shown) [Example 1, 2-methoxy-3-octoxypropyl glyceryl ether], for which, in “Viscosity (27° C.)”, the “Viscosity (27° C.)” value is 423 cp. Besides, in data set [1], the “Water-solubility (25° C.) 10%” value is reported as “Dissolved” and the “Water-solubility (25° C.) 50%” value is “Dissolved”.

On to `CCCCCCCCCCCCOCC(COCC(O)CO)OC` (stereo not shown) [Example 2, 2-methoxy-3-dodecyloxypropyl glyceryl ether], for which the “Viscosity (27° C.)” value in the data set “Viscosity (27° C.)” stood at 504 cp. The “Water-solubility (25° C.) 10%” value in data set [1] is “Dissolved”.

For the compound “2-octoxy-3-isostearoxypropyl glyceryl ether [Example 5]”, the “Viscosity (27° C.)” value in the data set “Viscosity (27° C.)” is 280 cp. In data set [1], the “Water-solubility (25° C.) 10%” value was “Undissolved” and the “Water-solubility (25° C.) 50%” value was “Undissolved”.

Take “2-methoxy-3-isostearoxypropyl glyceryl ether [Example 3]”: the “Viscosity (27° C.)” value in the data set “Viscosity (27° C.)” was determined as 382 cp.

On to “2-butoxy-3-isostearoxypropyl glyceryl ether [Example 4]”, for which the “Viscosity (27° C.)” value in “Viscosity (27° C.)” is 240 cp.
